System: Daphnia magna
Assay: 48 h LC50 (-log10 mol/L); higher = more toxic

Row | SMILES | 48 h LC50 (-log10 mol/L)
1 | COc1ccc2nc(S(=O)Cc3ncc(C)c(OC)c3C)[nH]c2c1 (configuration not stated) | 3.59
2 | ClCC1CO1 (configuration not stated) | 3.59
3 | C[C@]12CC[C@H]3[C@@H](CCC4=CC(=O)CC[C@@]43C)[C@@H]1CC[C@@H]2O | 5.17
4 | CN/C(=C\[N+](=O)[O-])NCCSCc1ccc(CN(C)C)o1 | 2.69
5 | CCNc1nc(Cl)nc(NCC)n1 | 3.33
6 | O=S1(=O)OCC2C(CO1)C1(Cl)C(Cl)=C(Cl)C2(Cl)C1(Cl)Cl (configuration not stated) | 5.3
7 | CC(c1ccc(Cl)cc1)c1ccc(Cl)cc1 | 6.86
8 | c1ccc2c(c1)ccc1oc3ccccc3c12 | 4.74
9 | CCc1ccccc1N | 4.18
10 | CC[C@H]1OC(=O)[C@H](C)[C@@H](O[C@H]2C[C@@](C)(OC)[C@@H](O)[C@H](C)O2)[C@H](C)[C@@H](O[C@@H]2O[C@H](C)C[C@H](N(C)C)[C@H]2O)[C@](C)(OC)C[C@@H](C)C(=O)[C@H](C)[C@@H](O)[C@]1(C)O | 4.6
11 | CCNC(=S)Nc1ccccc1 | 3.35
12 | CC/C(=C(/CC)c1ccc(O)cc1)c1ccc(O)cc1 | 5.37
13 | CCC(C)c1ccccc1OC(=O)NC (configuration not stated) | 6.32
14 | COc1ccc2cc([C@H](C)C(=O)O)ccc2c1 | 3.79
15 | CCOc1ccc2c(c1)C(C)=CC(C)(C)N2 | 5.04
16 | Clc1ccc(Cl)c(-c2cc(Cl)ccc2Cl)c1 | 6.99
17 | Clc1cccc(Cl)c1Cl | 4.75
18 | O=S1(=O)C=Cc2ccccc21 | 4.07
19 | N/C(=N\N=C\c1ccc(Cl)cc1)N/N=C/c1ccc(Cl)cc1 | 6.65

Row | SMILES | 48 h LC50 (-log10 mol/L)
20 | Cc1ccc(C(=O)c2cc(O)c(O)c([N+](=O)[O-])c2)cc1 | 4.14
21 | Nc1nc(N)c2nc(-c3ccccc3)c(N)nc2n1 | 4.4
22 | CCCN(CCC)C(=O)SCC | 4.61
23 | CC1(C)[C@@H]2CC[C@@]1(C)[C@H](OC(=O)CSC#N)C2 | 6.47
24 | NC(=O)N1c2ccccc2C=Cc2ccccc21 | 4.23
25 | Cc1ccc(Cl)cc1 | 4.93
26 | Clc1ccc(-c2ccc(Cl)c(Cl)c2Cl)c(Cl)c1Cl | 8.78
27 | c1ccc2c(c1)sc1ccccc12 | 5.6
28 | CCCC1O[C@@H]2C[C@H]3[C@@H]4CCC5=CC(=O)C=C[C@]5(C)[C@H]4[C@@H](O)C[C@]3(C)[C@]2(C(=O)CO)O1 (some centres not stated) | 4.33
29 | Oc1ccc(Cl)cc1Cl | 4.8
30 | CCCCC(CC)COP(=O)(Oc1ccccc1)Oc1ccccc1 (configuration not stated) | 6.38
31 | COc1c(O)cc(Cl)c(Cl)c1Cl | 5.53
32 | CC(=O)CC(c1ccccc1)c1c(O)c2ccccc2oc1=O (configuration not stated) | 2.96
33 | BrC=C(Br)Br | 4.33
34 | COc1ccccc1 | 3.43
35 | CCCC1COC(Cn2cncn2)(c2ccc(Cl)cc2Cl)O1 (configuration not stated) | 4.72
36 | COC(=O)Nc1cccc(OC(=O)Nc2cccc(C)c2)c1 | 4.65
37 | CCNc1nc(NCC)nc(SC)n1 | 3.63
38 | CCc1nc(N)nc(N)c1-c1ccc(Cl)cc1 | 4.63

Row | SMILES | 48 h LC50 (-log10 mol/L)
39 | c1ccc(NNc2ccccc2)cc1 | 4.65
40 | CC(C)NCC(O)COc1cccc2[nH]c3ccccc3c12 (configuration not stated) | 4.3
41 | O=S1(=O)c2ccccc2-c2ccccc21 | 4.57
42 | COc1ccc(NC(=O)N(C)C)cc1Cl | 3.15
43 | ClCC(Cl)(Cl)Cl | 3.84
44 | Clc1ccc(-c2ccc(Cl)c(Cl)c2)cc1Cl | 8.16
45 | c1ccc2c(c1)ccc1ccccc12 | 5.41
46 | CN(C)[C@@H]1C(=O)C(C(N)=O)=C(O)[C@@]2(O)C(=O)C3=C(O)c4c(O)ccc(Cl)c4[C@@](C)(O)[C@H]3C[C@@H]12 | 3.57
47 | c1ccc2cc3c(ccc4ccccc43)cc2c1 | 6.22
48 | O=NN(c1ccccc1)c1ccccc1 | 4.4
49 | CN=C=S | 5.42
50 | Cc1ccc2sccc2c1 | 4.03
51 | CC[C@H]1OC(=O)[C@H](C)[C@@H](O[C@H]2C[C@@](C)(OC)[C@@H](O)[C@H](C)O2)[C@H](C)[C@@H](O[C@@H]2O[C@H](C)C[C@H](N(C)C)[C@H]2O)[C@](C)(O)C[C@@H](C)CN(C)[C@H](C)[C@@H](O)[C@]1(C)O | 3.79
52 | CO/N=C(/C(=O)OC)c1ccccc1CO/N=C(\C)c1cccc(C(F)(F)F)c1 | 5.74
53 | Cc1csc2ccccc12 | 4.76
54 | CCCN(CCC)C(=S)SSC(=S)N(CCC)CCC | 6.19
55 | CCOP(=O)(SC(C)CC)N1CCSC1=O (configuration not stated) | 5.76
56 | C[C@]12C=CC(=O)C=C1C(Cl)=C[C@@H]1[C@@H]2[C@@H](O)C[C@@]2(C)[C@H]1CC[C@]2(O)C(=O)CO | 3.96
57 | CSc1nc(N)nc(NC(C)(C)C)n1 | 4.29

Reference: EPA's aquatic toxicity sets
